From patent US20070048250A1, “Methods of treating concomitant constipation in a cancer treatment regimen including imexon” (AmpliMed Corporation, priority 2005, published 2007)

Test system: patients
Test: clinical study of imexon to treat cancer: adverse events (daily dose 5 consecutive days per week, every other week, four-week cycle)
Type: in vivo, human
Description: As described hereinbefore, it has been found, unexpectedly, that the administration of a pharmaceutical composition comprising imexon induces constipation in a large percentage of patients. Of forty nine (49) patients taking part in a clinical study investigating the use of imexon to treat cancer, thirty one (31) patients (63.3%) were reported to have had the gastrointestinal toxicity of constipation in association with their treatment with imexon. […] All other observed gastrointestinal adverse events individually accounted for less than 5% of total gastrointestinal adverse events.
Of the forty nine (49) patients treated in the clinical study, thirty nine (39) received imexon at a dose equal to or greater than 140 mg/m^2, thirty three (33) received imexon at a dose equal to or greater than 185 mg/m^2, and thirty (30) received imexon at a dose equal to or greater than 245 mg/m^2.
Of these seventy three (73) constipation adverse events, fifty two (52) of the adverse events (71.2%) were characterized as “possibly,” “probably,” or “definitely related to the treatment” of the patient with imexon.

[1] = 20 mg/m^2, relationship Not Related
[2] = 80 mg/m^2, relationship Not Related
[3] = 105 mg/m^2, relationship Not Related
[4] = 140 mg/m^2, relationship Not Related
[5] = 140 mg/m^2, relationship Probable
[6] = 140 mg/m^2, relationship Unlikely
[7] = 185 mg/m^2, relationship Not Related
[8] = 185 mg/m^2, relationship Possible
[9] = 185 mg/m^2, relationship Probable
[10] = 245 mg/m^2, relationship Not Related
[11] = 245 mg/m^2, relationship Possible
[12] = 245 mg/m^2, relationship Probable
[13] = 325 mg/m^2, relationship Possible
[14] = 325 mg/m^2, relationship Probable
[15] = 430 mg/m^2, relationship Possible
[16] = 430 mg/m^2, relationship Probable
[17] = 430 mg/m^2, relationship Unlikely
[18] = 570 mg/m^2, relationship Definite
[19] = 570 mg/m^2, relationship Probable
[20] = 750 mg/m^2, relationship Definite
[21] = 750 mg/m^2, relationship Possible
[22] = 750 mg/m^2, relationship Probable
[23] = 875 mg/m^2, relationship Definite
[24] = 875 mg/m^2, relationship Possible
[25] = 875 mg/m^2, relationship Probable
[26] = 1000 mg/m^2, relationship Probable
[27] = all doses 20-1000 mg/m^2 (Total), relationship Definite
[28] = all doses 20-1000 mg/m^2 (Total), relationship Not Related
[29] = all doses 20-1000 mg/m^2 (Total), relationship Possible
[30] = all doses 20-1000 mg/m^2 (Total), relationship Probable
[31] = all doses 20-1000 mg/m^2 (Total), relationship Unlikely
[32] = all doses 20-1000 mg/m^2, 49 patients, all relationships (Total)
[33] = dose equal to or greater than 185 mg/m^2
[34] = dose equal to or greater than 245 mg/m^2

N=C1NC(=O)N2CC12 (centres unmarked) [imexon, 4-imino-1,3-diazabicyclo[3.1.0]-hexan-2-one] was tested, and the “Constipation Adverse Events, Total” value (20 mg/m^2, relationship Definite) was 0, the “Constipation Adverse Events, Grade 2” value [1] was 1 and the “Constipation Adverse Events, Grade 3” value [1] was 1. The “Constipation Adverse Events, Total” value [1] was 2, the “Constipation Adverse Events, Total” value (20 mg/m^2, relationship Possible) was 0 and the “Constipation Adverse Events, Total” value (20 mg/m^2, relationship Probable) was 0. For the same molecule, the “Constipation Adverse Events, Total” value (20 mg/m^2, relationship Unlikely) was 0, the “Constipation Adverse Events, Total” value (40 mg/m^2, relationship Definite) was 0 and the “Constipation Adverse Events, Total” value (40 mg/m^2, relationship Not Related) was 0. The “Constipation Adverse Events, Total” value (40 mg/m^2, relationship Possible) was 0, the “Constipation Adverse Events, Total” value (40 mg/m^2, relationship Probable) was 0 and the “Constipation Adverse Events, Total” value (40 mg/m^2, relationship Unlikely) was 0. For the same molecule, the “Constipation Adverse Events, Total” value (80 mg/m^2, relationship Definite) was 0, the “Constipation Adverse Events, Grade 2” value [2] was 3 and the “Constipation Adverse Events, Grade 3” value [2] was 1. For the same molecule, the “Constipation Adverse Events, Total” value [2] was 4, the “Constipation Adverse Events, Total” value (80 mg/m^2, relationship Possible) was 0 and the “Constipation Adverse Events, Total” value (80 mg/m^2, relationship Probable) was 0. The “Constipation Adverse Events, Total” value (80 mg/m^2, relationship Unlikely) was 0, the “Constipation Adverse Events, Total” value (105 mg/m^2, relationship Definite) was 0 and the “Constipation Adverse Events, Grade 2” value [3] was 5. The “Constipation Adverse Events, Grade 3” value [3] was 3, the “Constipation Adverse Events, Total” value [3] was 8 and the “Constipation Adverse Events, Total” value (105 mg/m^2, relationship Possible) was 0. For the same molecule, the “Constipation Adverse Events, Total” value (105 mg/m^2, relationship Probable) was 0, the “Constipation Adverse Events, Total” value (105 mg/m^2, relationship Unlikely) was 0 and the “Constipation Adverse Events, Total” value (140 mg/m^2, relationship Definite) was 0. The “Constipation Adverse Events, Grade 2” value [4] was 1, the “Constipation Adverse Events, Total” value [4] was 1 and the “Constipation Adverse Events, Total” value (140 mg/m^2, relationship Possible) was 0. For the same molecule, the “Constipation Adverse Events, Grade 2” value [5] was 1, the “Constipation Adverse Events, Total” value [5] was 1 and the “Constipation Adverse Events, Grade 2” value [6] was 2. The “Constipation Adverse Events, Grade 3” value [6] was 1, the “Constipation Adverse Events, Total” value [6] was 3 and the “Constipation Adverse Events, Total” value (185 mg/m^2, relationship Definite) was 0. The “Constipation Adverse Events, Grade 3” value [7] was 1, the “Constipation Adverse Events, Total” value [7] was 1 and the “Constipation Adverse Events, Grade 1” value [8] was 1. For the same molecule, the “Constipation Adverse Events, Total” value [8] was 1, the “Constipation Adverse Events, Grade 2” value [9] was 1 and the “Constipation Adverse Events, Total” value [9] was 1. For the same molecule, the “Constipation Adverse Events, Total” value (185 mg/m^2, relationship Unlikely) was 0, the “Constipation Adverse Events, Total” value (245 mg/m^2, relationship Definite) was 0 and the “Constipation Adverse Events, Grade 1” value [10] was 1. For the same molecule, the “Constipation Adverse Events, Total” value [10] was 1, the “Constipation Adverse Events, Grade 2” value [11] was 4 and the “Constipation Adverse Events, Grade 3” value [11] was 1. The “Constipation Adverse Events, Total” value [11] was 5, the “Constipation Adverse Events, Grade 2” value [12] was 2 and the “Constipation Adverse Events, Grade 3” value [12] was 1. For the same molecule, the “Constipation Adverse Events, Total” value [12] was 3, the “Constipation Adverse Events, Total” value (245 mg/m^2, relationship Unlikely) was 0 and the “Constipation Adverse Events, Total” value (325 mg/m^2, relationship Definite) was 0. For the same molecule, the “Constipation Adverse Events, Total” value (325 mg/m^2, relationship Not Related) was 0, the “Constipation Adverse Events, Grade 2” value [13] was 2 and the “Constipation Adverse Events, Total” value [13] was 2. The “Constipation Adverse Events, Grade 1” value [14] was 1, the “Constipation Adverse Events, Grade 2” value [14] was 2 and the “Constipation Adverse Events, Total” value [14] was 3. For the same molecule, the “Constipation Adverse Events, Total” value (325 mg/m^2, relationship Unlikely) was 0, the “Constipation Adverse Events, Total” value (430 mg/m^2, relationship Definite) was 0 and the “Constipation Adverse Events, Total” value (430 mg/m^2, relationship Not Related) was 0. The “Constipation Adverse Events, Grade 2” value [15] was 1, the “Constipation Adverse Events, Total” value [15] was 1 and the “Constipation Adverse Events, Grade 1” value [16] was 2. For the same molecule, the “Constipation Adverse Events, Grade 2” value [16] was 5, the “Constipation Adverse Events, Grade 3” value [16] was 1 and the “Constipation Adverse Events, Total” value [16] was 8. For the same molecule, the “Constipation Adverse Events, Grade 1” value [17] was 1, the “Constipation Adverse Events, Total” value [17] was 1 and the “Constipation Adverse Events, Grade 1” value [18] was 1. The “Constipation Adverse Events, Grade 2” value [18] was 4, the “Constipation Adverse Events, Grade 3” value [18] was 2 and the “Constipation Adverse Events, Total” value [18] was 7. The “Constipation Adverse Events, Total” value (570 mg/m^2, relationship Not Related) was 0, the “Constipation Adverse Events, Total” value (570 mg/m^2, relationship Possible) was 0 and the “Constipation Adverse Events, Grade 1” value [19] was 1. The “Constipation Adverse Events, Total” value [19] was 1, the “Constipation Adverse Events, Total” value (570 mg/m^2, relationship Unlikely) was 0 and the “Constipation Adverse Events, Grade 1” value [20] was 1. The “Constipation Adverse Events, Grade 2” value [20] was 4, the “Constipation Adverse Events, Grade 3” value [20] was 3 and the “Constipation Adverse Events, Total” value [20] was 8. The “Constipation Adverse Events, Total” value (750 mg/m^2, relationship Not Related) was 0, the “Constipation Adverse Events, Grade 1” value [21] was 2 and the “Constipation Adverse Events, Total” value [21] was 2. The “Constipation Adverse Events, Grade 2” value [22] was 2, the “Constipation Adverse Events, Total” value [22] was 2 and the “Constipation Adverse Events, Total” value (750 mg/m^2, relationship Unlikely) was 0. The “Constipation Adverse Events, Grade 1” value [23] was 2, the “Constipation Adverse Events, Grade 2” value [23] was 1 and the “Constipation Adverse Events, Grade 3” value [23] was 1. For the same molecule, the “Constipation Adverse Events, Total” value [23] was 4, the “Constipation Adverse Events, Total” value (875 mg/m^2, relationship Not Related) was 0 and the “Constipation Adverse Events, Grade 2” value [24] was 1. The “Constipation Adverse Events, Total” value [24] was 1, the “Constipation Adverse Events, Grade 1” value [25] was 1 and the “Constipation Adverse Events, Total” value [25] was 1. For the same molecule, the “Constipation Adverse Events, Total” value (875 mg/m^2, relationship Unlikely) was 0, the “Constipation Adverse Events, Total” value (1000 mg/m^2, relationship Definite) was 0 and the “Constipation Adverse Events, Total” value (1000 mg/m^2, relationship Not Related) was 0. The “Constipation Adverse Events, Total” value (1000 mg/m^2, relationship Possible) was 0, the “Constipation Adverse Events, Grade 2” value [26] was 1 and the “Constipation Adverse Events, Total” value [26] was 1. The “Constipation Adverse Events, Total” value (1000 mg/m^2, relationship Unlikely) was 0, the “all other observed gastrointestinal adverse events, individually, as share of total gastrointestinal adverse events” value (49 patients) was “less than 5%” and the “anorexia as share of total gastrointestinal adverse events” value (49 patients) was 13.4%. The “constipation adverse events as share of all gastrointestinal adverse events” value (49 patients) was 21.8%, the “diarrhea as share of total gastrointestinal adverse events” value (49 patients) was 10.5% and the “nausea as share of all gastrointestinal adverse events” value (49 patients) was 23.0%. For the same molecule, the “vomiting as share of total gastrointestinal adverse events” value (49 patients) was 11.9%, the “Constipation Adverse Events, Grade 1” value [27] was 4 and the “Constipation Adverse Events, Grade 2” value [27] was 9. For the same molecule, the “Constipation Adverse Events, Grade 3” value [27] was 6, the “Constipation Adverse Events, Grade 4” value [27] was 0 and the “Constipation Adverse Events, Grade 5” value [27] was 0. The “Constipation Adverse Events, Total” value [27] was “(Total) 19”, the “Constipation Adverse Events, Grade 1” value [28] was 1 and the “Constipation Adverse Events, Grade 2” value [28] was 10. The “Constipation Adverse Events, Grade 3” value [28] was 6, the “Constipation Adverse Events, Grade 4” value [28] was 0 and the “Constipation Adverse Events, Grade 5” value [28] was 0. The “Constipation Adverse Events, Total” value [28] was “(Total) 17”, the “Constipation Adverse Events, Grade 1” value [29] was 3 and the “Constipation Adverse Events, Grade 2” value [29] was 8. The “Constipation Adverse Events, Grade 3” value [29] was 1, the “Constipation Adverse Events, Grade 4” value [29] was 0 and the “Constipation Adverse Events, Grade 5” value [29] was 0. The “Constipation Adverse Events, Total” value [29] was “(Total) 12”, the “Constipation Adverse Events, Grade 1” value [30] was 5 and the “Constipation Adverse Events, Grade 2” value [30] was 14. For the same molecule, the “Constipation Adverse Events, Grade 3” value [30] was 2, the “Constipation Adverse Events, Grade 4” value [30] was 0 and the “Constipation Adverse Events, Grade 5” value [30] was 0. The “Constipation Adverse Events, Total” value [30] was “(Total) 21”, the “Constipation Adverse Events, Grade 1” value [31] was 1 and the “Constipation Adverse Events, Grade 2” value [31] was 2. For the same molecule, the “Constipation Adverse Events, Grade 3” value [31] was 1, the “Constipation Adverse Events, Grade 4” value [31] was 0 and the “Constipation Adverse Events, Grade 5” value [31] was 0. The “Constipation Adverse Events, Total” value [31] was “(Total) 4”, the “Constipation Adverse Events, Grade 1” value [32] was “(Total) 14” and the “Constipation Adverse Events, Grade 2” value [32] was “(Total) 43”. The “Constipation Adverse Events, Grade 3” value [32] was “(Total) 16”, the “Constipation Adverse Events, Grade 4” value [32] was “(Total) 0” and the “Constipation Adverse Events, Grade 5” value [32] was “(Total) 0”. For the same molecule, the “Constipation Adverse Events, Total” value [32] was 73, the “Constipation Adverse Events, Total” value (all doses 20-1000 mg/m^2, 49 patients, all relationships (Total), listed as Imexon) was “(Total) 73” and the “constipation adverse events characterized as possibly, probably, or definitely related to the treatment” value [33] was 94.4%. For the same molecule, the “constipation adverse events characterized as probably, or definitely related to the treatment” value [33] was 72.2%, the “constipation adverse events in total” value [33] was 54 and the “constipation adverse events characterized as possibly, probably, or definitely related to the treatment” value [34] was 96.1%. The “constipation adverse events characterized as probably, or definitely related to the treatment” value [34] was 74.5% and the “constipation adverse events in total” value [34] was 51.
